Measured values published in ChEMBL document CHEMBL1153977, “Fluorinated non-imidazole histamine H3 receptor antagonists” (Bioorg Med Chem Lett, 2009).

Key:
Histamine H3 receptor = Histamine H3 receptor (Homo sapiens, UniProt Q9Y5N1); experiment: Displacement of [125I]iodoproxyfan from human histamine H3 receptor expressed in […] cells; type: cell-based, HEK293
Mus musculus = experiment: In vivo histamine H3 receptor potency in po dosed Swiss mouse assessed as N'-methylhistamine level; type: functional

Chain of Histamine H3 receptor (Q9Y5N1 whole entry): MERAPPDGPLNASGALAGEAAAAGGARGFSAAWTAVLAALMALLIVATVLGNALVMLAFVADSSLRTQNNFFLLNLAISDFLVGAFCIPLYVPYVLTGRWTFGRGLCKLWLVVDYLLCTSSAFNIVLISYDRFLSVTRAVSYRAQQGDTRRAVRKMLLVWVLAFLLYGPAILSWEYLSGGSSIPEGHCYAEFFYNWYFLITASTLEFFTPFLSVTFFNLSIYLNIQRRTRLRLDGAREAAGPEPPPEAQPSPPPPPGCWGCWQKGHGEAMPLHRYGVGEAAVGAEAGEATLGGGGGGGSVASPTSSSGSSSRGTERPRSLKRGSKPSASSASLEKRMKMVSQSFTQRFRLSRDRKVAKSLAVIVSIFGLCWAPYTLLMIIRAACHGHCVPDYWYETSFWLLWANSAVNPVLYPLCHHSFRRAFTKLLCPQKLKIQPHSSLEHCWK

| SMILES | Ki (Histamine H3 receptor) [nM] | ED50 (Mus musculus) [mg/kg] |
| --- | --- | --- |
| N#Cc1ccc(OCCCN2CCCCC2)cc1 | 11 | 0.2 |
| c1cc(CN2CCCCC2)ccc1COc1ccc(CN2CCCCC2)cc1 | – | 9.6 |
| FCCc1ccc(OCCCN2CCCCC2)cc1 | 43 | – |
| F[C@@H]1CCN(Cc2ccc(OCCCN3CCCCC3)cc2)C1 | 0.28 | – |
| FC1CCN(CCCOc2ccc(CN3CCCC3)cc2)CC1 | 0.99 | – |
| FC1(F)CCN(Cc2ccc(OCCCN3CCCCC3)cc2)CC1 | 0.24 | 0.4 |
| ClC1CCN(Cc2ccc(OCCCN3CCCCC3)cc2)CC1 | 0.068 | – |
| CS(=O)(=O)OC1CCN(Cc2ccc(OCCCN3CCCCC3)cc2)CC1 | 0.84 | – |
| FC1CCN(Cc2ccc(OCCCN3CCCC3)cc2)CC1 | 0.26 | 12 |
| c1cc(OCCCN2CCCCC2)ccc1CN1CCCCC1 [JNJ-5207852] | – | 0.12 |
| Clc1ccc(CCCOCCCN2CCCCC2)cc1 [PITOLISANT] | – | 1.5 |

Second part, led by results:

| Ki (Histamine H3 receptor) [nM] | SMILES | ED50 (Mus musculus) [mg/kg] |
| --- | --- | --- |
| 0.31 | F[C@@H]1CCN(Cc2ccc(OCCCN3CCCC3)cc2)C1 | – |
| 17.3 | FCc1ccc(OCCCN2CCCCC2)cc1 | – |
| 0.28 | F[C@H]1CCN(Cc2ccc(OCCCN3CCCCC3)cc2)C1 | 3.9 |
| > 1000 | N#Cc1ccc(OCCCN2CCC(F)(F)CC2)cc1 | – |
| 0.2 | BrC1CCN(Cc2ccc(OCCCN3CCCCC3)cc2)CC1 | – |
| 0.094 | FC1CCN(Cc2ccc(OCCCN3CCCCC3)cc2)CC1 | 7.4 |
